According to patent US20090209620A1, “Direct Reversal Of The Suppressive Function Of CD4+Regulatory T Cells Via Toll-Like Receptor 8 Signaling” (priority 2005, published 2009):
“Also recorded” adds a separate entry of the source. In the oligonucleotide strings, read from the 5' end, every base follows the letter of its sugar. An asterisk marks phosphorothioate; unmarked linkages are phosphodiester. Other units and linkages are bracketed, terminal groups are in braces. A string of capitals states the bases alone. d = 2'-deoxy (DNA)

How the values were obtained:
[1] = test system: CD4+ Treg cells (Treg102, Treg164); experiment: Proliferation assay without DCs: Treg suppression of naive CD4+ T cell proliferation, anti-CD3-coated plates; format: cell-based, human; conditions: absence of DCs; for reversal of Treg cell-mediated suppression of naive CD4+ T cell proliferation: anti-CD3-coated plates, oligonucleotides 3 ug/ml in medium
Description: Establishing Treg cell lines and purifying natural CD4^+ CD25^+ Treg cells CD4^+ Treg clones were established from CD4^+ tumor-infiltrating lymphocytes (TIL102 and TIL164) and maintained in RPMI 1640 medium containing 10% human AB serum and recombinant IL-2 (300 IU/ml) using methods well known in the art (See, e.g., H. Y. Wang et al., Immunity 20, 107-118 (2004)). Treg clones derived from TIL102 or TIL164 cells were pooled and designated Treg102 or Treg164. Naturally occurring CD4^+ CD25^+ Treg cells were obtained by sorting CD4^+ T cell populations from fresh PBMCs after staining with anti-CD4 and anti-CD25 antibodies. To obtain optimal expansion, the OKT3 expansion method was performed using methods well known in the art (See, e.g., H. Y. Wang et al., Immunity 20, 107-118 (2004)). T cell clones were maintained at a low IL-2 concentration (300 IU/ml). Melanoma cell lines and EBV-transformed B-cell lines used in this study were cultured in RPMI 1640 medium containing 10% FCS. Human embryonic kidney (HEK) 293 and Epstein-Barr virus (EBV)-transformed B cell lines were maintained in RPMI 1640 with 10% fetal calf serum (FCS).
B. Proliferation assay without DCs: 1×10^5 näive CD4 T cells were cultured with regulatory T cells at different ratios (1: 0.2, 1:0.1 and 1:0.05) in anti-CD3 mAb-coated (2 ug/ml) 96-well plates in the presence or absence of the following TLR ligands or cytokines: CpG-A (3 ug/ml), CpG-B (3 ug/ml), LPS (100 ng/ml), TNF.-α (20 ng/ml), IFN-α (100 ng/ml), or IL-6 (100 ng/ml). After 56 h of culture, [3H]thymidine was added at a final concentration of 1 uCi/well, followed by an additional 16 h of culture. The incorporation of [^3H]thymidine was measured with a liquid scintillation counter.
Näive CD4^+ T cell proliferation experiments were performed similar to those in FIG. 1A, but in the absence of DCs. […] The reversal effect of CpG-A (SEQ ID NO: 1) contrasts with the failure of CpG-B (SEQ ID NO: 2), LPS, TNF-α, IL-6 or IFN-α to block the suppressive activity of CD4^+ Treg cells against naive CD4^+ T cells (FIG. 1B).
To further define the CpG-A (SEQ ID NO: 1) sequences responsible for the observed reversal effect, CpG-NG (SEQ ID NO: 5) and Poly-G10 (SEQ ID NO: 6), were tested for their ability to reverse the suppressive function of Treg cells. Naive CD4^+ T cells were mixed with CD4^+ Treg cells in anti-CD3 antibody-coated 96-wells with 200 μl of medium containing CpG-NG (SEQ ID NO: 5), CpG-A (SEQ ID NO: 1) or Poly-G10 (SEQ ID NO: 6). The proliferation assay was conducted as described in FIG. 1. […] For the experiments shown in FIG. 2B, naive CD4^+ T cells were mixed with CD4^+ Treg cells in anti-CD3 antibody-coated 96-wells with 200 μl of medium containing Poly-A10 (SEQ ID NO: 7), Poly-T10 (SEQ ID NO: 9) or Poly-C10 (SEQ ID NO: 8), while the Poly-G10 (SEQ ID NO: 6) oligonucleotides served as a positive control.
A series of oligonucleotides with decreasing numbers of guanosine nucleosides was constructed to determine the minimal number required for the reversal effect. For the experiments in FIG. 2C, CD4^+ T cells were mixed with CD4^+ Treg cells in anti-CD3 antibody-coated 96-wells containing medium with protected phosphorothioate linked guanosine nucleoside containing oligonucleotides of various lengths, while the unprotected five guanosines (SEQ ID NO: 10) served as a control.

586mel human tumor cells = experiment: Human 586mel tumor model in Rag1-/- mice with adoptive transfer of TIL586 and Treg102 cells; format: in vivo; conditions: 586mel s.c. day 0; CD8+ TIL586 plus Treg102 cells with oligonucleotide on day 3; n=6 mice per group
Experimental: Human 586mel tumor cells (5×106) in 100 μl of buffered saline were subcutaneously injected into Rag1^−/− mice (lacking T and B cells) or Rag 2 ^−/− γC ^−/− mice (lacking T, B and NK cells) on day 0. Tumor-specific CD8^+ TIL586 cells (2.5×107), which recognize and kill 586mel cells, were injected intravenously on day 3 with or without Treg102 cells (3×106) pretreated with Poly-G10 or Poly-T10. Tumor size was measured with calipers every 2-3 days. Tumor volume was calculated on the basis of two-dimensioned measurements. Tumor growth curves were compared with the Wilcoxon rank-sum test.
The data in FIG. 4A-B confirms that TLR8 serves as a receptor for synthetic guanosine containing oligonucleotides and natural ssRNA40 and ssRNA33 ligands derived from HIV-1 virus, and that its activation in endosomes by synthetic DNA or ssRNA ligands triggers a signaling pathway that can reverse the suppressive function of Treg cells. To study the guanosine containing oligonucleotide induced reversal of Treg cell function in vivo, a human tumor model was established by subcutaneously injecting 586mel human tumor cells into Rag1^−/− (T and B cell deficient) mice. […] Tumor volumes were measured and presented as mean±SD (n=6 mice per group). P value was determined between groups as indicated. […]

Substance	effect on proliferation of naive CD4+ T cells or Treg cells alone [1]	reversal of Treg cell-mediated suppression of naive CD4+ T cell proliferation [1]	tumor growth / antitumor immunity (586mel human tumor cells)
G* GGGGACGATCGTCG* G*G*G*G*G [CpG-A]	lacked any effect	restored the proliferation of naive CD4^+ T cells to near normal levels	
Poly-G10: guanosine oligonucleotide with protected phosphorothioate backbone (DNA dG*dG*dG*dG*dG*dG*dG*dG*dG*dG)		retained or even enhanced	enhances antitumor immunity in vivo; also recorded: tumor growth was not detected during the first 42 days
